Results from ChEMBL document CHEMBL3217526, “Bioguided discovery and pharmacophore modeling of the mycotoxic indole diterpene alkaloids penitrems as breast cancer proliferation, migration, and invasion inhibitors” (Medchemcomm, 2013).

Legend:
[1] = Cytotoxicity against human EKVX cells assessed as growth inhibition at 10 uM; type: functional; settings: read-out: GI
SNB-75 = assay: Cytotoxicity against human SNB75 cells assessed as growth inhibition at 10 uM; type: functional; settings: read-out: GI
MDA-MB-231 [2] = assay: Cytotoxicity against human MDA-MB-231 cells assessed as growth inhibition at 10 uM; type: functional; settings: read-out: GI
[3] = Cytotoxicity against human UO31 cells assessed as growth inhibition at 10 uM; type: functional; settings: UO-31, read-out: GI
SW-620 = assay: Cytotoxicity against human SW620 cells assessed as growth inhibition at 10 uM; type: functional; settings: read-out: GI
SK-MEL-2 = assay: Cytotoxicity against human SK-MEL-2 cells assessed as growth inhibition at 10 uM; type: functional; settings: read-out: GI
SK-OV-3 = assay: Cytotoxicity against human SKOV3 cells assessed as growth inhibition at 10 uM; type: functional; settings: read-out: GI
KM12 = assay: Cytotoxicity against human KM12 cells assessed as growth inhibition at 10 uM; type: functional; settings: read-out: GI
DU-145 = assay: Cytotoxicity against human DU145 cells assessed as growth inhibition at 10 uM; type: functional; settings: read-out: GI
K562 = assay: Cytotoxicity against human K562 cells assessed as growth inhibition at 10 uM; type: functional; settings: read-out: GI
[4] = Cytotoxicity against human Hs578T cells assessed as growth inhibition at 10 uM; type: functional; settings: Hs-578T, read-out: GI
[5] = Cytotoxicity against human OVCAR3 cells assessed as growth inhibition at 10 uM; type: functional; settings: OVCAR-3, read-out: GI
A549 = assay: Cytotoxicity against human A549 cells assessed as growth inhibition at 10 uM; type: functional; settings: read-out: GI
[6] = Cytotoxicity against human OVCAR8 cells assessed as growth inhibition at 10 uM; type: functional; settings: OVCAR-8, read-out: GI
RPMI-8226 = assay: Cytotoxicity against human RPMI8226 cells assessed as growth inhibition at 10 uM; type: functional; settings: read-out: GI
U-251 = assay: Cytotoxicity against human U251 cells assessed as growth inhibition at 10 uM; type: functional; settings: read-out: GI
ACHN = assay: Cytotoxicity against human ACHN cells assessed as growth inhibition at 10 uM; type: functional; settings: read-out: GI
[7] = Cytotoxicity against human UACC257 cells assessed as growth inhibition at 10 uM; type: functional; settings: UACC-257, read-out: GI
MDA-MB-231 [8] = assay: Antiinvasive activity against human MDA-MB-231 cells assessed as inhibition of cell invasion at 15 uM after 24 hrs by BME Cell invasion assay kit; type: functional; settings: MDA-MB-231, 24 h
COLO 205 = assay: Cytotoxicity against human COLO205 cells assessed as growth inhibition at 10 uM; type: functional; settings: read-out: GI
M14 = assay: Cytotoxicity against human M14 cells assessed as growth inhibition at 10 uM; type: functional; settings: read-out: GI
MDA-MB-231 [9] = assay: Antiproliferative activity against human MDA-MB-231 cells after 72 hrs by MTT assay; type: functional, cell-based; settings: MDA-MB-231, 72 h
NCI-H23 = assay: Cytotoxicity against human NCI-H23 cells assessed as growth inhibition at 10 uM; type: functional; settings: read-out: GI
HCC 2998 = assay: Cytotoxicity against human HCC2998 cells assessed as growth inhibition at 10 uM; type: functional; settings: read-out: GI
HOP-62 = assay: Cytotoxicity against human HOP62 cells assessed as growth inhibition at 10 uM; type: functional; settings: read-out: GI
Caenorhabditis elegans [10] = assay: Toxicity in L1 stage Caenorhabditis elegans N2 assessed as viability and reproduction at 50 uM; type: organism-based; settings: in vivo
Malme-3M = assay: Cytotoxicity against human MALME-3M cells assessed as growth inhibition at 10 uM; type: functional; settings: read-out: GI
[11] = Cytotoxicity against human OVCAR5 cells assessed as growth inhibition at 10 uM; type: functional; settings: OVCAR-5, read-out: GI
LOX IMVI = assay: Cytotoxicity against human LOXIMVI cells assessed as growth inhibition at 10 uM; type: functional; settings: read-out: GI
SK-MEL-28 = assay: Cytotoxicity against human SK-MEL-28 cells assessed as growth inhibition at 10 uM; type: functional; settings: read-out: GI
SNB-19 = assay: Cytotoxicity against human SNB19 cells assessed as growth inhibition at 10 uM; type: functional; settings: read-out: GI
T47D = assay: Cytotoxicity against human T47D cells assessed as growth inhibition at 10 uM; type: functional; settings: read-out: GI
SN12C = assay: Cytotoxicity against human SN12C cells assessed as growth inhibition at 10 uM; type: functional; settings: read-out: GI
MDA-MB-468 = assay: Cytotoxicity against human MDA-MB-468 cells assessed as growth inhibition at 10 uM; type: functional; settings: read-out: GI
Caenorhabditis elegans [12] = assay: Toxicity in L1 stage Caenorhabditis elegans N2 assessed as viability and reproduction at 10 uM; type: organism-based; settings: in vivo
MDA-MB-435 = assay: Cytotoxicity against human MDA-MB-435 cells assessed as growth inhibition at 10 uM; type: functional; settings: read-out: GI
NCI-H226 = assay: Cytotoxicity against human NCI-H226 cells assessed as growth inhibition at 10 uM; type: functional; settings: read-out: GI
MCF7 = assay: Antiproliferative activity against human MCF7 cells after 72 hrs by MTT assay; type: functional, cell-based; settings: MCF7, 72 h
NCI-H322M = assay: Cytotoxicity against human NCI-H322M cells assessed as growth inhibition at 10 uM; type: functional; settings: read-out: GI
[13] = Cytotoxicity against human OVCAR4 cells assessed as growth inhibition at 10 uM; type: functional; settings: OVCAR-4, read-out: GI
HT-29 = assay: Cytotoxicity against human HT-29 cells assessed as growth inhibition at 10 uM; type: functional; settings: read-out: GI
[14] = Cytotoxicity against human NCI-ADR-RES cells assessed as growth inhibition at 10 uM; type: functional; settings: read-out: GI
[15] = Cytotoxicity against human UACC62 cells assessed as growth inhibition at 10 uM; type: functional; settings: UACC-62, read-out: GI
NCI-H460 = assay: Cytotoxicity against human NCI-H460 cells assessed as growth inhibition at 10 uM; type: functional; settings: read-out: GI
SR = assay: Cytotoxicity against human SR cells assessed as growth inhibition at 10 uM; type: functional; settings: read-out: GI
BT-549 = assay: Cytotoxicity against human BT549 cells assessed as growth inhibition at 10 uM; type: functional; settings: read-out: GI
MDA-MB-231 [16] = assay: Antimigratory activity in human MDA-MB-231 cells after 24 hrs by wound healing assay; type: functional, cell-based; settings: MDA-MB-231, 24 h
IGROV-1 = assay: Cytotoxicity against human IGROV1 cells assessed as growth inhibition at 10 uM; type: functional; settings: read-out: GI
SK-MEL-5 = assay: Cytotoxicity against human SK-MEL-5 cells assessed as growth inhibition at 10 uM; type: functional; settings: read-out: GI
HCT-116 = assay: Cytotoxicity against human HCT116 cells assessed as growth inhibition at 10 uM; type: functional; settings: read-out: GI
RXF 393 = assay: Cytotoxicity against human RXF393 cells assessed as growth inhibition at 10 uM; type: functional; settings: read-out: GI
HL-60(TB) = assay: Cytotoxicity against human HL-60(TB) cells assessed as growth inhibition at 10 uM; type: functional; settings: read-out: GI
CCRF-CEM = assay: Cytotoxicity against human CCRF-CEM cells assessed as growth inhibition at 10 uM; type: functional; settings: read-out: GI
MOLT-4 = assay: Cytotoxicity against human MOLT4 cells assessed as growth inhibition at 10 uM; type: functional; settings: read-out: GI
PC-3 = assay: Cytotoxicity against human PC3 cells assessed as growth inhibition at 10 uM; type: functional; settings: read-out: GI
NCI-H522 = assay: Cytotoxicity against human NCI-H522 cells assessed as growth inhibition at 10 uM; type: functional; settings: read-out: GI
SF-539 = assay: Cytotoxicity against human SF539 cells assessed as growth inhibition at 10 uM; type: functional; settings: read-out: GI
[17] = Cytotoxicity against human HCT15 cells assessed as growth inhibition at 10 uM; type: functional; settings: HCT-15, read-out: GI
786-0 = assay: Cytotoxicity against human 786-0 cells assessed as growth inhibition at 10 uM; type: functional; settings: read-out: GI
TK-10 = assay: Cytotoxicity against human TK10 cells assessed as growth inhibition at 10 uM; type: functional; settings: read-out: GI
SF-268 = assay: Cytotoxicity against human SF268 cells assessed as growth inhibition at 10 uM; type: functional; settings: read-out: GI

C=C1Cc2ccc3[nH]c4c5c3c2[C@H]2[C@@H]1C[C@@H]2C(C)(C)O[C@H]5[C@@H]1CC[C@@]2(O)[C@@]35O[C@@H]3[C@@H](O)[C@@H](C(=C)C)O[C@H]5CC[C@]2(C)[C@@]41C [PENITREM B]
inhibition of growth at 10 µM [1]: 63% | inhibition of growth at 10 µM (SNB-75): 68.2% | inhibition of growth at 10 µM (MDA-MB-231 [2]): 77.8% | inhibition of growth at 10 µM [3]: 11.5% | inhibition of growth at 10 µM (SW-620): 64.1% | inhibition of growth at 10 µM (SK-MEL-2): 87.8% | inhibition of growth at 10 µM (SK-OV-3): 90.3% | inhibition of growth at 10 µM (KM12): 40.9% | inhibition of growth at 10 µM (DU-145): 64.4% | inhibition of growth at 10 µM (K562): 19.9% | inhibition of growth at 10 µM [4]: 42.4% | inhibition of growth at 10 µM [5]: 48.8% | inhibition of growth at 10 µM (A549): 43.1% | inhibition of growth at 10 µM [6]: 71.4% | inhibition of growth at 10 µM (RPMI-8226): 20.4% | inhibition of growth at 10 µM (U-251): 66.3% | inhibition of growth at 10 µM (ACHN): 59.3% | inhibition of growth at 10 µM [7]: 44.7% | inhibition at 15 µM (MDA-MB-231 [8]): 40% | inhibition of growth at 10 µM (COLO 205): 76.5% | inhibition of growth at 10 µM (M14): 34.5% | IC50 (MDA-MB-231 [9]): 13.7 µM | inhibition of growth at 10 µM (NCI-H23): 73.2% | inhibition of growth at 10 µM (HCC 2998): 107% | inhibition of growth at 10 µM (HOP-62): 94% | Activity (Caenorhabditis elegans [10]): Non-toxic | inhibition of growth at 10 µM (Malme-3M): 67.4% | inhibition of growth at 10 µM [11]: 102% | inhibition of growth at 10 µM (LOX IMVI): 39.5% | inhibition of growth at 10 µM (SK-MEL-28): 94.1% | inhibition of growth at 10 µM (SNB-19): 71.8% | inhibition of growth at 10 µM (T47D): 64.5% | inhibition of growth at 10 µM (SN12C): 38.6% | inhibition of growth at 10 µM (MDA-MB-468): 60.7% | Activity (Caenorhabditis elegans [12]): Non-toxic | inhibition of growth at 10 µM (MDA-MB-435): 33.9% | inhibition of growth at 10 µM (NCI-H226): 82.3% | IC50 (MCF7): 5.5 µM | inhibition of growth at 10 µM (NCI-H322M): 48.2% | inhibition of growth at 10 µM [13]: 66.3% | inhibition of growth at 10 µM (HT-29): 38.4% | inhibition of growth at 10 µM [14]: 56.7% | inhibition of growth at 10 µM [15]: 76.8% | inhibition of growth at 10 µM (NCI-H460): 50.6% | inhibition of growth at 10 µM (SR): 45.9% | inhibition of growth at 10 µM (BT-549): 63.7% | IC50 (MDA-MB-231 [16]): 10.3 µM | inhibition of growth at 10 µM (IGROV-1): 54.9% | inhibition of growth at 10 µM (SK-MEL-5): 61.1% | inhibition of growth at 10 µM (HCT-116): 25.3% | inhibition of growth at 10 µM (RXF 393): 70.3% | inhibition of growth at 10 µM (HL-60(TB)): 29% | inhibition of growth at 10 µM (CCRF-CEM): 21.3% | inhibition of growth at 10 µM (MOLT-4): 36.4% | inhibition of growth at 10 µM (PC-3): 27.8% | inhibition of growth at 10 µM (NCI-H522): 78.5% | inhibition of growth at 10 µM (SF-539): 89.8% | inhibition of growth at 10 µM [17]: 74.3% | inhibition of growth at 10 µM (786-0): 70.3% | inhibition of growth at 10 µM (TK-10): 84% | inhibition of growth at 10 µM (SF-268): 49.2%
